Literature values as cited in patent US20020177547A1, “Pharmaceutical compositions for treating or preventing cancer” (priority 2001, published 2002).

Key:
[1] = system: peripheral blood lymphocytes (PBL) of melanoma patients; details: repeated in vitro stimulation of PBL

Row | Sequence | induction of melanoma-reactive CTLs [1] | recognition by TILs (hgp100 TILs)
1 | VLYRYGSFSV (listed as Homo sapiens) [Peptide 3] | able to induce melanoma-reactive CTLs | 
2 | KTWGQYWQV [peptide 1] |  | immunodominant
3 | ITDQVPFSV [peptide 2] |  | immunodominant
